According to publication PMC2867451 (Journal of medicinal chemistry, 2010):
Read-outs that look alike come from different tables or passages of the source.

Experiments:
[1] = test system: maximal electroshock seizure (MES); test: maximal electroshock seizure; assay type: in vivo, rat; conditions: for MES, ED50: rat, po
behavioral toxicity [2] = test: behavioral toxicity, rat; conditions: for PI: protective index TD50/ED50; for behavioral toxicity observed: rat (po), 500 mg/kg
[3] = test system: maximal electroshock seizure (MES); test: maximal electroshock seizure; assay type: in vivo, mice; conditions: for ED50: Mus musculus, ip, read-out: MES, ED50; for duration of action in the MES model: mice (ip) and rat (po)
[4] = test system: subcutaneous Metrazol (scMet) seizure; test: subcutaneous Metrazol; assay type: in vivo, mice; conditions: Mus musculus, ip, read-out: scMet ED50
[5] = test system: psychomotor 6 Hz (32 mA) seizure; conditions: mice, ip; cited from earlier work
[6] = test system: formalin-induced pain response; conditions: 16 mg/kg; cited from earlier work
[7] = test system: hippocampal kindled seizure; conditions: rat; similar screening; cited from earlier work
[8] = test system: maximal electroshock seizure (MES); conditions: mice, ip; cited from earlier work
[9] = test system: formalin-induced pain response; test: formalin test, biphasic pain model, mice; assay type: in vivo; conditions: 15 mg/kg; mouse, ip
behavioral toxicity, rat = conditions: male, Sprague-Dawley, rat, in vivo, po
[10] = test system: maximal electroshock seizure (MES); conditions: rat, po; cited from earlier work
[11] = rotorod test for neurological impairment, mice; assay type: in vivo; conditions: male, Carworth Farms No. 1, mouse, in vivo, ip
[12] = test system: neurological impairment (rotorod test); test: rotorod test for neurological impairment, mice; assay type: in vivo; conditions: mice, ip; rotorod test
behavioral toxicity [13] = conditions: rat, po; TD50/ED50; cited from earlier work
[14] = test system: neurological impairment (rotorod test); conditions: mice, ip; TD50/ED50; cited from earlier work

CC(=O)NC(C(=O)NCc1ccc(OCc2cccc(F)c2)cc1)c1ccccn1 (racemic) [(R,S)-9, N-4′-((3″-Fluoro)benzyloxy)benzyl 2-Acetamido-2-(pyridin-2-yl)acetamide]
MES, ED50 [1]: >30 [4] mg/kg | Tox, TD50 (behavioral toxicity [2]; rat, po, behavioral toxicity): >30 [4] mg/kg

COCC(NCc1ccc(OCc2cccc(F)c2)cc1)C(N)=O (racemic) [(R,S)-74, 2-(4′-((3″-Fluoro)benzyloxy)benzyl)amino-3-methoxypropionamide]
ED50 [3]: 30 to 100 mg/kg

NC(=O)C(NCc1ccc(OCc2cccc(F)c2)cc1)c1ccco1.O=C(O)C(=O)O (racemic) [(R,S)-75, 2-(4′-((3″-Fluoro)benzyloxy)benzyl)amino-2-(furan-2-yl)acetamide Oxalate]
ED50 [4]: 100 to 300 mg/kg | ED50 [3]: 10 to 30 mg/kg

COC[C@@H](NC(C)=O)C(=O)NCc1ccccc1 [(R)-3, Lacosamide]
6 Hz (32 mA) ED50 [5]: 10 mg/kg | reduction in pain, formalin model [6]: comparable reduction in pain was observed only in the late phase | hippocampal kindled seizure test ED50 [7]: 14 mg/kg

C[C@@H](NCc1ccc(OCc2cccc(F)c2)cc1)C(N)=O [(R)-4]
MES, ED50 [8]: 7.2 (5.9–8.9) mg/kg

CC(=O)N[C@H](C)C(=O)NCc1ccc(OCc2cccc(F)c2)cc1 [(R)-6, (R)-N-4′-((3″-Fluoro)benzyloxy)benzyl 2-Acetamido-propionamide]
duration of action in the MES model [3]: extended duration of action | PI (behavioral toxicity [2]; rat, po): >16

COC[C@@H](NC(C)=O)C(=O)NCc1ccc(OCc2cccc(F)c2)cc1 [(R)-10, (R)-N-4′-((3″-Fluoro)benzyloxy)benzyl 2-Acetamido-3-methoxypropionamide]
pain responses in the acute and the chronic inflammatory phases [9]: reduced pain responses | PI (behavioral toxicity [2]; rat, po): >36

COC[C@@H](NC(C)=O)C(=O)NCc1ccc(-c2cccc(F)c2)cc1 [(R)-11, (R)-N-(3″-Fluorobiphenyl-4-yl)methyl 2-Acetamido-3-methoxypropionamide]
MES, ED50 [1]: 1.4 to 2.4 mg/kg | behavioral toxicity observed (behavioral toxicity [2]): no evidence of behavioral toxicity

COC[C@@H](NC(C)=O)C(=O)NCc1ccc(Oc2cccc(F)c2)cc1 [(R)-12, (R)-N-4′-((3″-Fluoro)phenoxy)benzyl 2-N-Acetamido-3-methoxypropionamide]
ED50 [3]: < 30 mg/kg

COC[C@@H](NC(C)=O)C(=O)NCc1ccc(C#Cc2cccc(F)c2)cc1 [(R)-15, (R)-N-4′-(((3″-Fluoro)phenyl)ethynyl)benzyl 2-Acetamido-3-methoxypropionamide]
duration of seizure protection ([1]; MES test, rat (po)): extended for the entire 4 h testing period | MES, ED50 [1]: 1.4 to 2.4 mg/kg | duration of action in the MES model [3]: extended duration of action

COC[C@@H](NC(C)=O)C(=O)NCc1ccc(COc2cccc(F)c2)cc1 [(R)-16, (R)-N-4′-(((3″-Fluoro)phenoxy)methyl)benzyl 2-Acetamido-3-methoxypropionamide]
PI (behavioral toxicity [2]; rat, po): >21

COC[C@@H](NC(C)=O)C(=O)NCc1ccc(OCc2ccccc2)cc1 [(R)-20, (R)-N-4′-(Benzyloxy)benzyl 2-N-Acetamido-3-methoxypropionamide]
ED50 [3]: < 3 mg/kg | TD50 (behavioral toxicity, rat): > 10 mg/kg

COC[C@@H](NC(C)=O)C(=O)NCc1ccc(OCc2ccccc2F)cc1 [(R)-21, (R)-N-4′-((2″-Fluoro)benzyloxy)benzyl 2-Acetamido-3-methoxypropionamide]
PI (behavioral toxicity [2]; rat, po): >45

COC[C@@H](NC(C)=O)C(=O)NCc1ccc(OCc2ccc(F)cc2)cc1 [(R)-22, (R)-N-4′-((4″-Fluoro)benzyloxy)benzyl 2-Acetamido-3-methoxypropionamide]
PI (behavioral toxicity [2]; rat, po): >86

COC[C@@H](NC(C)=O)C(=O)NCc1ccc(-c2ccccc2)cc1 [(R)-73, (R)-N-(biphenyl-4-yl)methyl 2-acetamido-3-methoxypropionamide]
MES, ED50 [10]: 2.0 mg/kg

C[C@H](NCc1ccc(OCc2cccc(F)c2)cc1)C(N)=O [(S)-4, Safinamide]
MES, ED50 [8]: 8.0 (7.0–9.1) mg/kg

CC(=O)N[C@@H](C)C(=O)NCc1ccc(OCc2cccc(F)c2)cc1 [(S)-6, (S)-N-4′-((3″-Fluoro)benzyloxy)benzyl 2-Acetamidopropionamide]
TD50 [11]: > 300 mg/kg

COC[C@H](NC(C)=O)C(=O)NCc1ccc(OCc2cccc(F)c2)cc1 [(S)-10, (S)-N-4′-((3″-Fluoro)benzyloxy)benzyl 2-Acetamido-3-methoxypropionamide]
Tox, TD50 [12]: >300 mg/kg | ED50 [3]: > 300 mg/kg

CC(=O)NCC(=O)NCc1ccc(OCc2cccc(F)c2)cc1 [compound 5, N-4′-((3″-Fluoro)benzyloxy)benzyl 2-Acetamidoacetamide]
behavioral toxicity observed (behavioral toxicity [2]): no apparent neurological toxicity | PI (behavioral toxicity [2]; rat, po): >16

O=C1NC(=O)C(c2ccccc2)(c2ccccc2)N1 [phenytoin]
PI (behavioral toxicity [13]): > 100

CCCC(CCC)C(=O)[O-].[Na+] [valproate]
PI (behavioral toxicity [13]): 0.6 | PI [14]: 1.6
